Assay results reported in publication PMC5515969, “Effects of 31 FDA approved small-molecule kinase inhibitors on isolated rat liver mitochondria” (Archives of Toxicology, 2016).
Read-outs that look alike come from different tables or passages of the source.

Legend:
[1] = cited from earlier work
RCC III = RCC III activity in submitochondrial particles; assay type: biochemical, rat; parameters: key to RCC III at 100XCmax: activity relative to DMSO-treated controls (control set as 1 = 100%); conditions: for RCC III at 100XCmax: relative to DMSO treated samples
Method in brief: (§1)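 Kinase inhibitors were preincubated 15 min with submitochondrial particles (1 mg/ml) before complex activities were measured. RCC I was the rotenone-sensitive portion (activity without minus with rotenone). RCC I/V was read at 340 nm and RCC II at 600 nm every 1 min for 6 min. RCC III and IV were read at 550 nm every 10 s for 2 min. Activities are normalized to DMSO controls set as 1.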

[2] = system: isolated rat liver mitochondria; test: Mitochondrial inner membrane potential (MMP), Rhodamine 123; assay type: biochemical; conditions: difference in signal between KI and DMSO treated samples at the end of experiments
Text: Fig. 3 KI effects on mitochondrial inner membrane potential (MMP). […] In a, c, data are means and standard derivations from three separate experiments. *p < 0.05 as compared to DMSO-treated samples at the end of experiments. In b, data are means of two independent experiments

[3] = system: isolated rat liver mitochondria; test: Mitochondrial ROS production (CM-H2DCFDA); conditions: DMSO treated samples set as 1
[4] = therapeutic maximal blood concentration, ref product labeling, cited from earlier work
RCC IV = RCC IV activity in submitochondrial particles; assay type: biochemical, rat; parameters: key to RCC IV at 50XCmax / RCC IV at 100XCmax: activity relative to DMSO-treated controls (control set as 1 = 100%); conditions: for RCC IV at 50XCmax: relative to DMSO treated samples, in %
Method in brief: as §1

[5] = system: isolated rat liver mitochondria; test: Mitochondrial oxygen consumption (glutamate/malate or succinate driven, state 4 and state 3); assay type: biochemical; conditions: DMSO treated samples set as 1; on State 3 respiration driven by succinate at 10XCmax: key: 0 indicates that the drug had no effects (negative); on State 3 respiration driven by succinate at 1XCmax: key: 0 indicates that the drug had no effects (negative)
Method in brief: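 Rat liver mitochondria (1 mg/ml protein) exposed 5 min to kinase inhibitors in 0.1% DMSO, then O2 consumption measured by Clark-type electrode with glutamate/malate or succinate (state 4), ADP added after 3 min (state 3). Rates normalized to 0.1% DMSO controls set to 1.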

[6] = system: isolated rat liver mitochondria; test: Mitochondrial swelling (absorbance at 535 nm); assay type: biochemical; conditions: difference in signal between KI and DMSO treated samples at the end of experiments; on Swelling 5XCmax: key: 0 indicates that the drug had no effects (negative)
[7] = system: isolated rat liver mitochondria; conditions: positive control alamethicin treated samples
[8] = 1 = DILI positive, 0 = negative, ref product labeling
[9] = 100-fold Cmax, 15 min, DMSO-treated = 100

N#CC[C@H](C1CCCC1)n1cc(-c2ncnc3[nH]ccc23)cn1 [ruxolitinib phosphate]
DILI potential (based on labeling) [1, 8]: 0
RCC III at 100XCmax (RCC III): 0
MMP measured by Rhodamine 123 at 1XCmax [2]: 0
MMP measured by Rhodamine 123 at 2.5XCmax [2]: 0
MMP measured by Rhodamine 123 at 5XCmax [2]: 0
MMP measured by Rhodamine 123 at 10XCmax [2]: 0
MMP measured by Rhodamine 123 at 20XCmax [2]: 0
MMP measured by Rhodamine 123 at 30XCmax [2]: 0
MMP measured by Rhodamine 123 at 50XCmax [2]: 0
MMP measured by Rhodamine 123 at 100XCmax [2]: 0
ROS measured by CM-H2DCFDA at 1XCmax [3]: 0
ROS measured by CM-H2DCFDA at 2.5XCmax [3]: 0
ROS measured by CM-H2DCFDA at 5XCmax [3]: 0
ROS measured by CM-H2DCFDA at 10XCmax [3]: 0
ROS measured by CM-H2DCFDA at 20XCmax [3]: 0
ROS measured by CM-H2DCFDA at 30XCmax [3]: 0
ROS measured by CM-H2DCFDA at 50XCmax [3]: 0
ROS measured by CM-H2DCFDA at 100XCmax [3]: 0
Cmax ([4]; read-out: Cmax at µM): 1.2 µM
Cmax [4]: 368 ng/mL
RCC IV at 50XCmax (RCC IV): 0
State 3 respiration driven by glutamate/malate at 1XCmax [5]: 0
State 3 respiration driven by succinate at 1XCmax [5]: 0
State 4 respiration driven by glutamate/malate at 1XCmax [5]: 0
State 4 respiration driven by succinate at 1XCmax [5]: 0
State 3 respiration driven by glutamate/malate at 2.5XCmax [5]: 0
State 3 respiration driven by succinate at 2.5XCmax [5]: 0
State 4 respiration driven by glutamate/malate at 2.5XCmax [5]: 0
State 4 respiration driven by succinate at 2.5XCmax [5]: 0
State 3 respiration driven by glutamate/malate at 5XCmax [5]: 0
State 3 respiration driven by succinate at 5XCmax [5]: 0
State 4 respiration driven by glutamate/malate at 5XCmax [5]: 0
State 4 respiration driven by succinate at 5XCmax [5]: 0
State 3 respiration driven by glutamate/malate at 10XCmax [5]: 0
State 3 respiration driven by succinate at 10XCmax [5]: 0
State 4 respiration driven by glutamate/malate at 10XCmax [5]: 0
State 4 respiration driven by succinate at 10XCmax [5]: 0
State 3 respiration driven by glutamate/malate at 20XCmax [5]: 0.62±0.05
State 3 respiration driven by succinate at 20XCmax [5]: 0
State 4 respiration driven by glutamate/malate at 20XCmax [5]: 0
State 4 respiration driven by succinate at 20XCmax [5]: 0
State 3 respiration driven by glutamate/malate at 30XCmax [5]: 0.54±0.02
State 3 respiration driven by succinate at 30XCmax [5]: 0
State 4 respiration driven by glutamate/malate at 30XCmax [5]: 0
State 4 respiration driven by succinate at 30XCmax [5]: 0
State 3 respiration driven by glutamate/malate at 50XCmax [5]: 0.49±0.06
State 3 respiration driven by succinate at 50XCmax [5]: 0
State 4 respiration driven by glutamate/malate at 50XCmax [5]: 0
State 4 respiration driven by succinate at 50XCmax [5]: 0
State 3 respiration driven by glutamate/malate at 100XCmax [5]: 0.28±0.06
State 3 respiration driven by succinate at 100XCmax [5]: 0
State 4 respiration driven by glutamate/malate at 100XCmax [5]: 0.71±0.08
State 4 respiration driven by succinate at 100XCmax [5]: 0
Swelling 1XCmax [6]: 0
Swelling 2.5XCmax [6]: 0
Swelling 5XCmax [6]: 0
Swelling 10XCmax [6]: 0
Swelling 20XCmax [6]: 0
Swelling 30XCmax [6]: 0
Swelling 50XCmax [6]: 0
Swelling 100XCmax [6]: 0
Cytochrome c release 1XCmax [7]: 0
Cytochrome c release 2.5XCmax [7]: 0
Cytochrome c release 5XCmax [7]: 0
Cytochrome c release 10XCmax [7]: 0
Cytochrome c release 20XCmax [7]: 0
Cytochrome c release 30XCmax [7]: 0
Cytochrome c release 50XCmax [7]: 13.84±2.24 percentage of the positive control group
Cytochrome c release 100XCmax [7]: 8.09±1.58 percentage of the positive control group

COc1cc(Nc2c(C#N)cnc3cc(OCCCN4CCN(C)CC4)c(OC)cc23)c(Cl)cc1Cl [Bosutinib]
DILI potential (based on labeling) [1, 8]: 1
Labeling for DILI ([1]; BBW: black box warning, W&P: Warnings and Precautions, ref product labeling): W&P: ALT↑
labeling for DILI ([1]; W&P warnings and precautions, BBW black box warnings, ref FDA product labeling): W&P: ALT↑/monitoring
DILI potential (based on labeling) ([1]; ref FDA product labeling): 1
RCC activity III (RCC III; [9]): 101.81 ± 4.43 % of control
RCC III at 100XCmax (RCC III): 0
MMP measured by Rhodamine 123 at 1XCmax [2]: 0
MMP measured by Rhodamine 123 at 2.5XCmax [2]: 0
MMP measured by Rhodamine 123 at 5XCmax [2]: 0
MMP measured by Rhodamine 123 at 10XCmax [2]: 0
MMP measured by Rhodamine 123 at 20XCmax [2]: 0
MMP measured by Rhodamine 123 at 30XCmax [2]: 0
MMP measured by Rhodamine 123 at 50XCmax [2]: 0
MMP measured by Rhodamine 123 at 100XCmax [2]: 0
ROS measured by CM-H2DCFDA at 1XCmax [3]: 0
ROS measured by CM-H2DCFDA at 2.5XCmax [3]: 0
ROS measured by CM-H2DCFDA at 5XCmax [3]: 0
ROS measured by CM-H2DCFDA at 10XCmax [3]: 0
ROS measured by CM-H2DCFDA at 20XCmax [3]: 0
ROS measured by CM-H2DCFDA at 30XCmax [3]: 0
ROS measured by CM-H2DCFDA at 50XCmax [3]: 0
ROS measured by CM-H2DCFDA at 100XCmax [3]: 0
Cmax [4]: 200 ng/mL
RCC IV at 50XCmax (RCC IV): 0
RCC activity IV (RCC IV; [9]): 101.25 ± 2.26 % of control
State 3 respiration driven by glutamate/malate at 1XCmax [5]: 0
State 3 respiration driven by succinate at 1XCmax [5]: 0
State 4 respiration driven by glutamate/malate at 1XCmax [5]: 0
State 4 respiration driven by succinate at 1XCmax [5]: 0
State 3 respiration driven by glutamate/malate at 2.5XCmax [5]: 0
State 3 respiration driven by succinate at 2.5XCmax [5]: 0
State 4 respiration driven by glutamate/malate at 2.5XCmax [5]: 0
State 4 respiration driven by succinate at 2.5XCmax [5]: 0
State 3 respiration driven by glutamate/malate at 5XCmax [5]: 0
State 3 respiration driven by succinate at 5XCmax [5]: 0
State 4 respiration driven by glutamate/malate at 5XCmax [5]: 0
State 4 respiration driven by succinate at 5XCmax [5]: 0
State 3 respiration driven by glutamate/malate at 10XCmax [5]: 0
State 3 respiration driven by succinate at 10XCmax [5]: 0
State 4 respiration driven by glutamate/malate at 10XCmax [5]: 0
State 4 respiration driven by succinate at 10XCmax [5]: 0
State 3 respiration driven by glutamate/malate at 20XCmax [5]: 0
State 3 respiration driven by succinate at 20XCmax [5]: 0
State 4 respiration driven by glutamate/malate at 20XCmax [5]: 0
State 4 respiration driven by succinate at 20XCmax [5]: 0
State 3 respiration driven by glutamate/malate at 30XCmax [5]: 0
State 3 respiration driven by succinate at 30XCmax [5]: 0
State 4 respiration driven by glutamate/malate at 30XCmax [5]: 0
State 4 respiration driven by succinate at 30XCmax [5]: 0
State 3 respiration driven by glutamate/malate at 50XCmax [5]: 0
State 3 respiration driven by succinate at 50XCmax [5]: 0
State 4 respiration driven by glutamate/malate at 50XCmax [5]: 0
State 4 respiration driven by succinate at 50XCmax [5]: 0
State 3 respiration driven by glutamate/malate at 100XCmax [5]: 0
State 3 respiration driven by succinate at 100XCmax [5]: 0
State 4 respiration driven by glutamate/malate at 100XCmax [5]: 0
State 4 respiration driven by succinate at 100XCmax [5]: 0
Swelling 1XCmax [6]: 0
Swelling 2.5XCmax [6]: 0
Swelling 5XCmax [6]: 0
Swelling 10XCmax [6]: 0
Swelling 20XCmax [6]: 0
Swelling 30XCmax [6]: 0
Swelling 50XCmax [6]: 0
Swelling 100XCmax [6]: 0
Cytochrome c release 1XCmax [7]: 0
Cytochrome c release 2.5XCmax [7]: 0
Cytochrome c release 5XCmax [7]: 0
Cytochrome c release 10XCmax [7]: 0
Cytochrome c release 20XCmax [7]: 0
Cytochrome c release 30XCmax [7]: 0
Cytochrome c release 50XCmax [7]: 0
Cytochrome c release 100XCmax [7]: 0
